Like-named read-outs stand apart in the source and are kept apart here.
Assays:
[1] = tested on: Plasmodium berghei (Pb-Luc) exoerythrocytic-stage parasites
[2] = tested on: P. falciparum Dd2 erythrocytic stage; test: Dd2 erythrocytic-stage assay (SYBR Green) for DOS compounds; settings: read-out: Erythrocytic-stage (Pf Dd2) IC50; Figure 4b
[3] = tested on: P. falciparum 3D7 parasites; test: Asexual erythrocytic-stage SYBR Green I proliferation assay, 1536-well; assay type: cell-based, Plasmodium falciparum; settings: Plasmodium falciparum
[4] = tested on: Plasmodium berghei (Pb-Luc) exoerythrocytic-stage parasites; test: microbe, parasite or virus in culture
Plasmodium DHODH enzyme = target: T1, Plasmodium DHODH enzyme (Plasmodium falciparum, UniProt Q08210); test: DHODH assay; settings: data not shown
T1 sequence (Q08210 24-569): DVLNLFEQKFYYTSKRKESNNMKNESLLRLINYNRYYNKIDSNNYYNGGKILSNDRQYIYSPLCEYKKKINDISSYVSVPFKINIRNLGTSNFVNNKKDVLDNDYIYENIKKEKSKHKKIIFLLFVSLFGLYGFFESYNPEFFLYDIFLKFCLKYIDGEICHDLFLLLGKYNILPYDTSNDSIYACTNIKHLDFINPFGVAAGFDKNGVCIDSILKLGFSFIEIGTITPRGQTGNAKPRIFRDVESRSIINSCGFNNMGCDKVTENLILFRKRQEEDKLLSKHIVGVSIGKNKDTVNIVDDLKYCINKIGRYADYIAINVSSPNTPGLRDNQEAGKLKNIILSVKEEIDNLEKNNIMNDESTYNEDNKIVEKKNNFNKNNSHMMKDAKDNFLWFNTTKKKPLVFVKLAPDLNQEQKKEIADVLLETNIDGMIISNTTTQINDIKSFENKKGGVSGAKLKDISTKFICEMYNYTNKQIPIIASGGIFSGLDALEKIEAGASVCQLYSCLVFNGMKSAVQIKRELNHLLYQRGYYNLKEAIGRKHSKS

HepG2-A16-CD81EGFP cells = test: cells; settings: Homo sapiens
[5] = tested on: Plasmodium cynomolgi exoerythrocytic-stage small (hypnozoites) and large (liver stage schizonts) parasites; test: P. cynomolgi liver assay in primary hepatocytes; settings: Plasmodium cynomolgi, Hepatocyte
[6] = target: QuantiLum Recombinant Luciferase (Photinus pyralis, UniProt P08659); test: Bioluminescence quantification of compound luciferase inhibition
[7] = tested on: Pb-Luc exoerythrocytic-stage parasites in Huh7.5.1 cells; test: Pb-Luc time of action assay (modified 384-well luciferase assay); settings: Plasmodium berghei
[8] = read-out: Exoerythrocytic-stage Pb-Luc IC50, Figure 4b, second assay (value in parentheses)
[9] = 3D7, read-out: P. falciparum (blood) IC50, Table S1, validation set of 50 antimalarials
[10] = read-out: P. berghei (liver) IC50, Table S1, validation set of 50 antimalarials, Pb-Luc
[11] = 3D7, read-out: P. falciparum (blood) IC50
[12] = read-out: P. berghei (liver) IC50
[13] = read-out: % inhibition normalized to untreated control, Large
[14] = read-out: % inhibition normalized to untreated control, Small

QuantiLum Recombinant Luciferase, sequence (P08659 whole entry): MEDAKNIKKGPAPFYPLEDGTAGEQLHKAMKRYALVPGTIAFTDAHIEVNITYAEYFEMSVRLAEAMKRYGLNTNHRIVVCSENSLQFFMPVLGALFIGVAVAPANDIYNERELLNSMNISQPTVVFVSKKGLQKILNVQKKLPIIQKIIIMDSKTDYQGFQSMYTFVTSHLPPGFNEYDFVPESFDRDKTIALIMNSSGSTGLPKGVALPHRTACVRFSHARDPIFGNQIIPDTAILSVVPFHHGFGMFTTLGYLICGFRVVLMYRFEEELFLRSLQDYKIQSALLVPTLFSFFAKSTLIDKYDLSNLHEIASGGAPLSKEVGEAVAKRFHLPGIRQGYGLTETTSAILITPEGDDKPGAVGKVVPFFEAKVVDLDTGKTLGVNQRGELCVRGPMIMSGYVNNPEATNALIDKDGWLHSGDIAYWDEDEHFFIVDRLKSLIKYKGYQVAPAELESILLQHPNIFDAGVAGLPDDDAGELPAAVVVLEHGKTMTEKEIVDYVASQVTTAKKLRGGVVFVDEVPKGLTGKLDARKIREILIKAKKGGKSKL

CCCNC(=O)N1[C@H](C#N)[C@H](c2ccc(C#Cc3cccc(F)c3)cc2)[C@H]1CO [BRD7539]
IC50 [1, 8]: 2 nM | IC50 ([1]; read-out: Pb-Luc IC50, Figure 4a, stereoisomers tested in dose response, listed as BRD9781/7539 series SSS): 2 nM | IC50 [2]: 10 nM

C=C[C@H]1C[N@@]2CC[C@H]1C[C@@H]2[C@@H](O)c1ccnc2ccc(OC)cc12 [Quinidine, reference compound]
IC50 [3, 9]: 2.9 nM | IC50 [4, 10]: > 12500 nM

CCN(CC)CCCC(C)Nc1ccnc2cc(Cl)ccc12 (stereo not shown) [Chloroquine, reference compound]
IC50 [3, 11]: 2.1 nM | IC50 [4, 12]: > 12500 nM

c1cc([C@H]2CC[C@]3(CC2)OO[C@]2(O3)C3CC4CC(C3)CC2C4)ccc1OCCN1CCOCC1 [OZ439, reference compound]
IC50 [3, 9]: 2.8 nM | IC50 [4, 10]: 5240 nM

CN(C)c1ccc2nc3ccc(=[N+](C)C)cc-3sc2c1 [Methylene Blue, reference compound]
IC50 [3, 9]: 7980 nM | IC50 [4, 10]: 95.6 nM

C[C@H]1[C@@H](O)O[C@@H]2O[C@@]3(C)CC[C@H]4[C@H](C)CC[C@@H]1[C@@]24OO3 [Artenimol, reference compound]
IC50 [3, 9]: < 0.4 nM | IC50 [4, 10]: 1560 nM

CCCNC(=O)N1[C@H](CO)[C@H](c2ccc(C#Cc3cccc(F)c3)cc2)[C@@H]1C#N [BRD9781]
IC50 ([1]; read-out: Exoerythrocytic-stage Pb-Luc IC50, Figure 4b, first assay): 80 nM | IC50 [1, 8]: 40 nM | IC50 ([1]; read-out: Pb-Luc IC50, Figure 4a, stereoisomers tested in dose response, listed as BRD9781/7539 series SRR): 39 nM | activity in a DHODH assay (Plasmodium DHODH enzyme): inactive | IC50 [2]: 8550 nM

C[C@@H]1C[C@@H]([C@H](O)CC2CC(=O)NC(=O)C2)C(=O)[C@@H](C)C1 [Cycloheximide, reference compound]
IC50 [3, 11]: 1.8 nM | IC50 [4, 12]: 20.7 nM

CO[C@H]1O[C@@H]2O[C@@]3(C)CC[C@H]4[C@H](C)CC[C@@H]([C@H]1C)[C@@]24OO3 [Artemether, reference compound]
IC50 [3, 9]: < 0.4 nM | IC50 [4, 10]: 3140 nM

CC(C)(N)CNC(=O)C[C@H]1CC[C@]2(CC1)OO[C@]1(O2)C2CC3CC(C2)CC1C3 [OZ277, reference compound]
IC50 [3, 9]: 2.3 nM | IC50 [4, 10]: 1640 nM

CCN(CC)CCCC(C)Nc1cc(OC)cc2cccnc12 (stereo not shown) [Pamaquine, reference compound]
IC50 [3, 9]: > 10000 nM | IC50 [4, 10]: > 12500 nM

Cc1ccc(N2C3c4ccccc4N(S(=O)(=O)c4ccc(C)cc4)C2c2ccccc2N3S(=O)(=O)c2ccc(C)cc2)cc1 [MMV007160]
cytotoxicity at 50 µM (HepG2-A16-CD81EGFP cells; HepG2, read-out: HepG2 Tox% @ 50 uM rep1): -4.53% | cytotoxicity at 50 µM (HepG2-A16-CD81EGFP cells; HepG2, read-out: HepG2 Tox% @ 50 uM rep2): -10% | IC50 (HepG2-A16-CD81EGFP cells; HepG2, read-out: Tox IC50): > 10000 nM | inhibition at 10 µM (HepG2-A16-CD81EGFP cells; HepG2, read-out: Tox max inhibition (%) @ 10 uM): 10% | inhibition at 50 µM ([4]; read-out: Inhibition% @ 50 uM rep1): 103% | inhibition at 50 µM ([4]; read-out: Inhibition% @ 50 uM rep2): 105% | IC50 ([4]; read-out: PbLuc IC50, dose response, 1/3 dilutions, max conc. 10 or 50 uM, unit inferred): 36.7 nM | inhibition at 10 µM ([4]; read-out: PbLuc max inhibition (%) @ 10 uM): 110% | inhibition at 0.1 µM [5, 13]: 17% | inhibition at 1 µM [5, 13]: 14% | inhibition at 10 µM [5, 13]: 0% | inhibition at 0.1 µM [5, 14]: 17% | inhibition at 1 µM [5, 14]: -25% | inhibition at 10 µM [5, 14]: -11% | IC50 [6]: > 20000 nM | Emax ([6]; read-out: LucInhib max inhibition): 14% | IC50 ([7]; Huh-7.5.1, read-out: Pb-Luc IC50, Treatment: 1): 792 nM | IC50 ([7]; Huh-7.5.1, read-out: Pb-Luc IC50, Treatment: 2): 285 nM | IC50 ([7]; Huh-7.5.1, read-out: Pb-Luc IC50, Treatment: 3): 2880 nM | IC50 ([7]; Huh-7.5.1, read-out: Pb-Luc IC50, Treatment: 4): 177 nM | IC50 ([7]; Huh-7.5.1, read-out: Pb-Luc IC50, Treatment: 5): 198 nM | IC50 ([7]; Huh-7.5.1, read-out: Pb-Luc IC50, Treatment: 6): 179 nM

COc1ccc2nc3cc(Cl)ccc3c(Nc3cc(CN4CCCC4)c(O)c(CN4CCCC4)c3)c2n1 [Pyronaridine, reference compound]
IC50 [3, 9]: 9.6 nM | IC50 [4, 10]: 6790 nM

Clc1ccc2c(N3CCN(CCCN4CCN(c5ccnc6cc(Cl)ccc56)CC4)CC3)ccnc2c1 [Piperaquine, reference compound]
IC50 [3, 9]: 72 nM | IC50 [4, 10]: > 12500 nM

— publication PMC4890880 (ACS infectious diseases, 2016)
